Data on 2 compounds can be found in patent US8097708B2, “10a-Azalide compound” (Taisho Pharmaceutical Co., Ltd., priority 2006, dated 2012).

Experiment in all cases: In vitro antibacterial activity, microbroth dilution method (NCCLS method)
Type in all cases: cell-based

One assay concerns H. influenzae ATCC 43095. The note with it: Haemophilus influenzae, ATCC43095; bacteria symbol A = H. influenzae ATCC 43095; read-out: MIC values (minimum inhibitory concentration). The procedure: (§1) In vitro antibacterial activities of the compounds of the present invention against various test bacteria were measured according to the microbroth dilution method (NCCLS method). As test compounds, the compounds of Examples 7, 23, 114, 126, 131, 210, 214, 231, 257, 261, 287, 363, 366, 563 and Comparative agent 1: clarithromycin were used. The results are shown as MIC values (minimum inhibitory concentration, μg/ml) in Table 21.

Another assay relates to S. pneumoniae 205. The note with it: Streptococcus pneumoniae; bacteria symbol C = S. pneumoniae 205; read-out: MIC values (minimum inhibitory concentration). The procedure: as §1
The test system of another assay is S. pneumoniae ATCC 49619. The note with it: Streptococcus pneumoniae, ATCC49619; bacteria symbol B = S. pneumoniae ATCC 49619; read-out: MIC values (minimum inhibitory concentration). How it is done: as §1

Structures are written as SMILES. Values after ≈ are worked out from the molar mass of the structure shown. Where only a bound is given, the exact number is not on record here.

In the case of `CO[C@]1(C)C[C@H](O[C@H]2[C@H](C)[C@@H](O[C@@H]3O[C@H](C)C[C@H](N(C)C)[C@H]3O)[C@@](C)(OC)C[C@@H](C)[C@H](O)[C@H](C)N(C)C(C)C(C)OC(=O)[C@@H]2C)O[C@@H](C)[C@@H]1O` (stereo partly drawn) [Example 261], the values for the MIC with H. influenzae ATCC 43095, in the assay on S. pneumoniae 205 and in the assay on S. pneumoniae ATCC 49619 were 4 µg/mL (≈ 5.56 µM), 64 µg/mL (≈ 89 µM) and 0.12 µg/mL (≈ 0.167 µM), respectively.

As to `CC[C@H]1OC(=O)[C@H](C)[C@@H](O[C@H]2C[C@@](C)(OC)[C@@H](O)[C@H](C)O2)[C@H](C)[C@@H](O[C@@H]2O[C@H](C)C[C@H](N(C)C)[C@H]2O)[C@](C)(OC)C[C@@H](C)C(=O)[C@H](C)[C@@H](O)[C@]1(C)O` [Comparative agent 1, clarithromycin], the MIC is 4 µg/mL (≈ 5.35 µM) in the assay with H. influenzae ATCC 43095, greater than 128 µg/mL in the assay on S. pneumoniae 205 and 0.03 µg/mL (≈ 0.0401 µM) in the assay on S. pneumoniae ATCC 49619.
